Some results are limits rather than exact numbers.

The target of assay [1] is superoxide-dependent, iron-promoted lipid peroxidation of native rat heart cardiac lipid liposomes. Nature of the assay: Lipid peroxidation inhibition (in vitro testing of antiperoxidative agents, ANTI-OX), hypoxanthine-xanthine oxidase-Fe3+.ADP, rat cardiac liposomes, MDA equivalents. Particulars: 60 min, 37° C., screened at 1.0 μM, IC50 determined if inhibition ≥ 50%, read-out: ANTI-OX IC-50. It is filed as biochemical. The procedure:
The test system employs hypoxanthine-xanthine oxidase (XO)-Fe^3+. ADP as the free radical generator and purified, native rat-heart membrane phosphoglyceride in Hepes-KCl buffer, pH 7.4, as the substrate. Inhibition of superoxide-dependent, iron-promoted lipid peroxidation in the linear reaction phase (after 1 hour of reaction) is measured as the net formation of thiobarbituric acid (TBA)-reactive material. In this system, the TBA-reactive material, isolated by HPLC, is exclusively (>95%) malondialdehyde (MDA), a fragmentation end-product arising from fatty acyl hydroperoxides and cyclic endoperoxides. […]
a) Isolation and purification of Rat Cardiac Lipid
Conscious male Sprague-Dawley rats (~275g) maintained on a normal rodent diet were decapitated. The hearts were rapidly removed and perfused via the aorta with ice-cold 10 mM Hepes buffer, pH 7.4. The aorta and atria were removed, and the ventricular tissue was blotted and weighed (wet weight). The hearts were minced on ice with scissors and finally homogenized (100 mg tissue/ml ice-cold buffer) for 15 seconds (3×5 seconds) with a Tekmar Tissumizer at "maximal" setting. The homogenate was filtered through 4-ply cheesecloth, and homogenate lipids were extracted and purified by a modified Bligh-Dyer procedure (M.D. Marshall and M. Kates, Biochem. Biophys. Acta 260, 558 (1972). The cardiac lipids were stored in CHCl3 under nitrogen at -20° C. […]
b) Preparation of Cardiac Liposomes
Liposomes were prepared from extracted and purified, native rat heart cardiac lipid and were used as substrate for free-radical attack. Cardiac lipid (in CHCl3) was placed in a glass flask and evaporated to dryness under nitrogen at room temperature; the flask was gently rotated during evaporation to yield a thin, dry lipid film. The lipid was taken up in 10 mM Hepes-0.145M KCl, pH 7.4, and was resuspended by indirect an aerobic sonification for 15 minutes at room temperature. The liposome suspension was used immediately. […]
c) preparation of Fe^3+ -ADP Chelate
A chelate was formed in Hepes-KCl buffer between Fe^3+ (1.0mM FeCl3, final concentration) and ADP (10mM, final concentration) at pH 7.4 with stirring at room temperature. Chelation was allowed to proceed for 90 minutes prior to use. The chelate was prepared fresh for each days experiments to ensure iron solubility, effective chelation, and valence state. […]
d) Thiobarbituric Acid Reaction or Determination of Malondialdehvde Equivalents Malondialdehyde (MDA) equivalents were measured as thiobarbituric acid (TBA)-reactive material by the following modification of published methods. The reaction mixture. prepared fresh daily, contained water: BHT ([…] BHT in absolute ethanol): TBA (1.5% TBA in 0.2M Tris, pH 7.0) in the volume ratio 1:1:5. To each 1.0 ml of peroxidation reaction assayed (see below), 0.35 ml reaction mixture was added. After thorough mixing, the tubes were incubated in an 80° C. shaking water bath for 30 minutes. After this time, the tubes were plunged into an ice water bath, and the reaction was immediately stopped with 0.5 ml ice-cold 91% TCA followed by 2.0 ml CHCl3 After centrifugation for 30 minutes at 2000 rpm in a Sorval HL-8 rotor (4° C.), the absorbance of the washed, pink upper phase was read at 532 nm. A standard curve (0.8-40.0 nmol MDA) was run with every assay. For each curve, MDA was freshly prepared by acidification of 1,1,3,3 -tetraethoxypropane with 75% TCA-2.3N HCl (0.15 ml acid mixture with 1.0 ml suitably diluted tetraethoxypropane). Computer-assisted regression analysis of the standard curve was used to quantify the molar amounts of MDA equivalents in the experimental samples. […]
e) Lipid peroxidation Reaction
Cardiac liposomes were subjected to superoxidedependent. iron-promoted peroxidation in glass vessels to avoid the well-known antioxidant effects of many common polymerizing agents used to fabricate plastic labware. […]

For assay [2], the target named is T1, Δ^5 -lipoxygenase from rat basophilic leukemia (RBL-1) cells (Rattus norvegicus, UniProt P12527).
T1 construct: endogenous in cells; host or cells: RBL-1 rat basophilic leukemia cells (ATCC CRL 1378); 113,000×g supernatant (cytosolic fraction)
T1 sequence (P12527 1-673): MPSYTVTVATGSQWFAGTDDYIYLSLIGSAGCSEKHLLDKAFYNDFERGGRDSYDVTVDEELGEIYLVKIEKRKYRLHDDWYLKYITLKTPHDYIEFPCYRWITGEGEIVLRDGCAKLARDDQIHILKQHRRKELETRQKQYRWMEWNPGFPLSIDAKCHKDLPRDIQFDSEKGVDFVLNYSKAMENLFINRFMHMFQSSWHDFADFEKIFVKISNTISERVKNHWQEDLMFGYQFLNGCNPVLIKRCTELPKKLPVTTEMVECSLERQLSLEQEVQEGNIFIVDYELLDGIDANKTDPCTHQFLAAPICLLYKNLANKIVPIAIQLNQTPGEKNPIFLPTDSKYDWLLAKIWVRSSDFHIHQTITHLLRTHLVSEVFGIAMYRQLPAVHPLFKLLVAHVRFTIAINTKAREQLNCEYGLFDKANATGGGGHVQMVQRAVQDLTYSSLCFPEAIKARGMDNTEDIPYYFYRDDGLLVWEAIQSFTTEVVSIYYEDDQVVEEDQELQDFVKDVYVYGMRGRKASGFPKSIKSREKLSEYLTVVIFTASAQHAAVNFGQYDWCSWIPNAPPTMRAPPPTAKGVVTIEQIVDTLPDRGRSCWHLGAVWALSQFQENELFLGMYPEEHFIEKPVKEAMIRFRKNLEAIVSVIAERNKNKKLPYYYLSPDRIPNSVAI
Description: In vitro test for Δ^5 -lipoxygenase inhibitors (5-LO), RBL-1 cell enzyme, 5-HETE radioimmunoassay. It is filed as biochemical. The following applies: RBL-1 5-LO; 10 min preincubation; 8.25 μM arachidonic acid, 10 min at 37° C.; 5-HETE formation; read-out: 5-LO IC-50. On the procedure:
IN VITRO TEST FOR Δ^5 -LIPOXYGENASE INHIBITORS Compounds of formula I of the invention were tested for their effect on Δ^5 -lipoxygenase from rat basophilic leukemia (RBL-1) cells. Materials. RBL-1 cells (CRL 1378) were obtained from the American TYpe Culture Collection, Rockville, MD. DMEM and glutamine were purchased from Flow Labs, McLean, VA. FBS (Gibco, Grand Island, NY) was heat-inactivated for 1 hour at 56° C. Reagents for protein determinations were obtained from Biorad, Rockville Center, NY. Arachidonic acid (approx. 99%), ATP (disodium slat), BHT, dextran (clinical grade), tetrasodium EDTA, gelatin, gentamycin sulfate solution, reduced glutathione, 1 M HEPES buffer, indomethacin, NaCl, reduced NADpH, Trizma 7.2, and Trizma 8.5 were purchased from Sigma Chemical, St. Louis, MO. CaCl2 dihydrate, Norit A charcoal, and citric acid monohydrate were obtained from Fisher Scientific, Pittsburgh, PA. […] MA. A synthetic 5-HETE standard was supplied by Dr. M. Rosenberger, Dept. of Medicinal Chemistry, Hoffmann-La Roche, Nutley, NJ; [see Corey, E.J., and Hashimoto, S. (1981 ) Tet. Letters, 22, 299-302 for method of preparation]. Ecoscint liquid sointillation fluid was purchased from National Diagnostics, Sommerville, NJ. Isolation of 5-lipoxygenase. […] Approximately 7-9 days after thawing, RBL-1 cells growing in log phase were seeded at a density of 7500 viable cells/ml in a closed 89-liter spinner flask. The cells were stirred constantly for 3-4 days at 37° C. until they reached a density greater than 500,000/ml but less than 800,00/ml. RBL-1 cells were harvested by centrifugation at 4° C. at 1500×g for 10 minutes and were washed 3 times with ice cold 0.05 M tris-HCl, pH 7.2, tetrasodium EDTA (buffer 1). The cells were washed last in 0.05 M Tris-HCl containing 14 μM indomethacin, 1 mM glutathione, 1.5 mM NaCl, and 1 mM tetrasodium EDTA (buffer 2), resuspended at a density of 5×108'/ml (approximately 10 ml) and disrupted manually at 4° C. using a 40 ml Dounce (type A pestle) homogenizer. After 5 minutes of homogenization. 95% cell lysis was confirmed by phase contrast microscopy. The broken cells were diluted 1:2 with buffer 2 and centrifuged at 12,380×g for 10 minutes at 4° C. to pellet cellular debris and granules. The 12,380×g supernatant was centrifuged at 113,000×g for 60 minutes to pellet microsomes. The high-speed supernatant (5.9±0.48 mg/ml protein) was frozen immediately in 1 ml aliquots using a dry ice/acetone bath. The isolated cytosolic fraction was stored in liquid N2 for up to 8 weeks without loss of 5-LO enzyme activity. Lipoxygenase Assay. Compounds Were dissolved at 25 mM concentration in DMSO, then diluted to final concentrations using 95% ethanol. For a typical enzyme assay, the partially purified 5-LO preparation was preincubated with drug or vehicle for 10 minutes at 30° C. The assay tubes were then transferred at a 37° C. water bath where they received arachidonic acid (8.25 μM final concentration) to initiate 5-LO activity. In addition to enzyme and substrate, each reaction tube contained: 12.5 μmoles of Tris-HCl (pH 7.2), 25 nmoles glutathione, 0.35 nmoles indomethacin and 1.25 μmoles of CaCl2 and ATP to yield a total of volume of 250 μl. The enzyme reaction was terminated after 10 minutes by the addition of 75μl […] citric acid to yield pH 3.5. The samples were immediately cooled on ice and neutralized by dilution with 0.05 M Tris-HCl, pH 8.5, which contained 25 mg/1 BHT. A boiled cytosol control was placed at the end of each assay to measure non-enzymatic oxidation of arachidonic acid. The mean specific activity of the 5-LO enzyme preparation was approximately 66.16±14.39 pmol 5-HETE/min/mg protein. Radioimmunoassay for 5-HETE. Under the assay conditions described, the 5-LO catalyzed the conversion of arachidonic acid to 5-HPETE which, as a consequence o peroxidase activity, was reduced to 5-HETE. A specific radioimmunoassay was employed to quantitate the amount (pmoles) of 5-HETE formed during the enzyme reaction. […]

The test system of assay [3] is arachidonic acid-induced mouse ear edema. Description: Mouse ear edema test (in vivo), arachidonic acid-induced. Particulars: 1 mg topical, CD-1 male mice, 0.5 mg arachidonic acid 0.5 or 4 hours later, ear biopsy weight after 1 hour, read-out: EAR EDEMA % INHIB. 1 mg. The procedure: MOUSE EAR EDEMA TEST (IN VIVO)
In this animal model system, the application of arachidonic acid to the ear results in the biosynthesis of the metabolic products […]-6,8,11,14-eicosatetraenoic acid (5-HETE), leukotriene B4 (LTB4), leukotriene C4 (LTC4), […]-5,8,10,14-eicosatetraenoic acid (12-HETE), and prostaglandin E2 (PGE2) at the site of application, followed by the influx of neutrophils into the site and the rapid development of edema within 30 to 60 minutes (See, for instance, Young, Wagner and Spries, "Tachyphylaxis in 12-O-Tetradecanoylphorbol Acetate And Arachidonic Acid-Induced Ear Edma," J. Invest. Dermatol. 80:48 (1983) and Hames, Opas and Bonney, "Arachidonic Acid MetaboIites in Mouse Ear Edma" Advances in Inflammation Research. 11:57 (1986).
CD-1 male mice weighing 15 to 25 g were employed, and they were designated as follows: (1) Control Group, in which no arachidonic acid or test compound was to be applied, (2) Arachidonic Acid-Treated Group, in which no test compound was to be applied, and (3) Treated Group, in which the test compound was to be applied first, followed by the application of arachidonic acid.
In the case of the Group (3) animals, the test compound, dissolved in acetone, was applied to the dorsal surface of the right ear of the mouse with a 25-microliter pipette or, with the dose of the test compound being varied. After 0.5 hours in some cases and 4 hours in others, the arachidonic acid was topically applied in the same manner as above to the pretreated ear areas. In each case of arachidonic acid application, an amount of 0.5 mg dissolved in 25 microliters of acetone was used. After 1 hour, the mice were sacrificed by carbon dioxide inhalation. A 6mm-diameter standard biopsy punch was used to obtain a uniform tissue sample from the ear of each mouse so treated, and the tissue samples were weighted to the nearest 0.1 mg. The percent inhibition of ear edema formation was calculated as follows: [formula]

For `CCCc1cc(C#CC2(C)CCc3c(C)c(O)c(C)c(C)c3O2)ccc1O` (racemic) [Example 37, rac-3,4-Dihydro-2-[(4-hydroxy-3-propylphenyl)ethynyl]-2,5,7,8-tetramethyl-2H-1-benzopyran-6-ol], the IC50 in assay [1] is above 1000 nM. In the case of `COc1cc(C=O)cc2cc(C3(C)CCc4c(C)c(O)c(C)c(C)c4O3)oc12` (racemic) [Example 54, rac-2-(3,4-Dihydro-6-hydroxy-2,5,7,8-tetramethyl-2H-1-benzopyran-2-yl)-7-methoxy-5-benzofurancarboxaldehyde], in assay [2], the IC50 was 1 nM. Moreover, the inhibition in vivo at 1 mg in assay [3] was found to be 40%. For `Cc1c(C)c2c(c(C)c1O)CCC(C)(CCc1ccccc1)O2` (centres unmarked) [Example 56, 3,4-Dihydro-2,5,7,8-tetramethyl-2-(2-phenylethyl)-2H-1-benzopyran-6-ol], in that order: 110 nM and 64%.

Values taken from US5015661A, “Chromanes and their pharmaceutical compositions and methods” (Hoffmann-La Roche Inc., priority 1989, dated 1991).
